Reference: patent US11986471B2, “Compounds and methods of use” (Tango Therapeutics, Inc., priority 2018, dated 2024)

Key:
PRMT5 [1] = molecular target: T1, PRMT5 (Homo sapiens, UniProt O14744); assay: PRMT5 IC50 assay in the presence of SAM as cofactor; format: biochemical
T1 construct: purchased Viva (custom protein)
How it was run: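 Enzyme: human PRMT5. Conditions: plus SAM, plus MTA, or cofactor-free. Output: IC50 (μM); Ki via IC50/1.5 (SAM) or IC50/13.5 (MTA).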

PRMT5 [2] = molecular target: T1, PRMT5; assay: PRMT5 IC50 assay with no cofactor; format: biochemical; conditions: read-out: No Co-factor IC50
How it was run: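 IC50 values were measured against human PRMT5 with SAM, with MTA, or with no cofactor. Ki was derived from IC50 as Ki=IC50/1.5 with SAM and Ki=IC50/13.5 with MTA, and the Ki(SAM)/Ki(MTA) ratio was then taken.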

PRMT5 [3] = molecular target: T1, PRMT5; assay: PRMT5 IC50 assay in the presence of MTA as cofactor; format: biochemical; conditions: for IC50: PRMT5, MTA as cofactor; for SAM/MTA Ratio: ratio between Ki in the presence of SAM and Ki in the presence of MTA
How it was run: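 Three cofactor conditions are run: SAM-bound, MTA-bound and cofactor-free enzyme. IC50 is read from each; for the SAM and MTA arms it is divided by 1.5 and 13.5 respectively to give Ki.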

HAP1 MTAP-intact = assay: SDMA in-cell western assay, HAP1 MTAP-intact cell line; format: cell-based; conditions: Homo sapiens
How it was run: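 Using an MTAP-isogenic HAP1 cell pair, inhibition of SDMA formation is read by in-cell western and expressed as IC50. MTAP-selectivity is assigned where the ratio between lines reaches 3 fold or greater.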

HAP1 MTAP-deleted = assay: SDMA in-cell western assay, HAP1 MTAP-deleted cell line; format: cell-based; conditions: for IC50: Homo sapiens, HAP1 MTAP-deleted cell line; for MTAP Intact/Deleted Ratio: IC50 ratio HAP1 MTAP-intact / HAP1 MTAP-deleted
How it was run: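 In-cell western for SDMA marks; MTAP-deleted (null) HAP1 background; values given as IC50.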

T1 sequence (O14744 whole entry): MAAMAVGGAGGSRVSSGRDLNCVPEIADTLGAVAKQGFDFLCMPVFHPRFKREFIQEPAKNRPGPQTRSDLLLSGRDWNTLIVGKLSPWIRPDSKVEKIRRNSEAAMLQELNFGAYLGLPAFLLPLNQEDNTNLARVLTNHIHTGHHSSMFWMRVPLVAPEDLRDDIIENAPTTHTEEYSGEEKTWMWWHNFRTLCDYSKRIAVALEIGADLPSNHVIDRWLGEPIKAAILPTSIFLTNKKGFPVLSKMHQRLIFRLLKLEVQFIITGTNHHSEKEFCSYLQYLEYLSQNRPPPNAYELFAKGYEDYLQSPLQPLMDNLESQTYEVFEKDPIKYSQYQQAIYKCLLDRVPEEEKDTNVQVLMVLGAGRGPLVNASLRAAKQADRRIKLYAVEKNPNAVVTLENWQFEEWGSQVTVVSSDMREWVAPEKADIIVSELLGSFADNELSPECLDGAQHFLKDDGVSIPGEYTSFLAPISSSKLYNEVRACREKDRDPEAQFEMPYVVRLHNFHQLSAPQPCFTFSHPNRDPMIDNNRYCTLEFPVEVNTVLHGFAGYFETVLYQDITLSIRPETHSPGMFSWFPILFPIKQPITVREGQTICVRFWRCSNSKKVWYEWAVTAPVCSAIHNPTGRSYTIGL
T1 sequence (Q9BQA1 whole entry partner): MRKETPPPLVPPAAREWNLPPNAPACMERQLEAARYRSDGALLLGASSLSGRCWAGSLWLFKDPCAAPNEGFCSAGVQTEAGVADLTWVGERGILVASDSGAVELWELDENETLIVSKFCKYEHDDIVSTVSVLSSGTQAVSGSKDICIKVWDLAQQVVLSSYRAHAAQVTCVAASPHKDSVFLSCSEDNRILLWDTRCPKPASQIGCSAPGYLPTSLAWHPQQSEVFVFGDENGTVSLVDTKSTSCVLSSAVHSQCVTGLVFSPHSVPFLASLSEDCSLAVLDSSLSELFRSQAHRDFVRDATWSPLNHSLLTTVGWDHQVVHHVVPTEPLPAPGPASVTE

## O=C(NC[C@H](O)CN1CCc2c(ccc(OCc3cnco3)c2Cl)C1)c1cc(NC2CCCC2)ncn1 [Compound 336, (S)—N-(3-(5-chloro-6-(oxazol-5-ylmethoxy)-3,4-dihydroisoquinolin-2(1H)-yl)-2-hydroxypropyl)-6-(cyclopentylamino)pyrimidine-4-carboxamide]
PRMT5 [1]
  IC50: 0.5 to 5 µM
PRMT5 [2]
  IC50: ≥ 5 µM
PRMT5 [3]
  IC50: 0.5 to 5 µM
  SAM/MTA Ratio: A (a Ki ratio greater than or equal to 10 fold between the Ki in the presence of SAM and the Ki in the presence of MTA)
HAP1 MTAP-intact
  IC50: ≥ 10 µM
HAP1 MTAP-deleted
  IC50: ≥ 10 µM
  MTAP Intact/Deleted Ratio: C* (an IC50 ratio of less than 3 fold between the IC50 in the HAP1 MTAP-intact cell line and the HAP1 MTAP-deleted cell line)

## O=C(NC[C@H](O)CN1CCc2c(ccc(OCc3cnco3)c2Br)C1)c1cc(NC2CCCC2)ncn1 [Compound 337]
PRMT5 [1]
  IC50: 0.5 to 5 µM
PRMT5 [2]
  IC50: ≥ 5 µM
PRMT5 [3]
  IC50: 0.5 to 5 µM
  SAM/MTA Ratio: A (a Ki ratio greater than or equal to 10 fold between the Ki in the presence of SAM and the Ki in the presence of MTA)
HAP1 MTAP-intact
  IC50: ≥ 10 µM
HAP1 MTAP-deleted
  IC50: ≥ 10 µM
  MTAP Intact/Deleted Ratio: C* (an IC50 ratio of less than 3 fold between the IC50 in the HAP1 MTAP-intact cell line and the HAP1 MTAP-deleted cell line)

## Cc1ncoc1COc1ccc2c(c1Br)CCN(C[C@@H](O)CNC(=O)c1cc(NC3CCC3)ncn1)C2 [Compound 338, (S)—N-(3-(5-bromo-6-((4-methyloxazol-5-yl)methoxy)-3,4-dihydroisoquinolin-2(1H)-yl)-2-hydroxypropyl)-6-(cyclobutylamino)pyrimidine-4-carboxamide]
PRMT5 [1]
  IC50: 0.5 to 5 µM
PRMT5 [2]
  IC50: ≥ 5 µM
PRMT5 [3]
  IC50: 0.5 to 5 µM
  SAM/MTA Ratio: A (a Ki ratio greater than or equal to 10 fold between the Ki in the presence of SAM and the Ki in the presence of MTA)
HAP1 MTAP-intact
  IC50: ≥ 10 µM
HAP1 MTAP-deleted
  IC50: ≥ 10 µM
  MTAP Intact/Deleted Ratio: C* (an IC50 ratio of less than 3 fold between the IC50 in the HAP1 MTAP-intact cell line and the HAP1 MTAP-deleted cell line)

## Cc1ncoc1COc1ccc2c(c1Cl)CCN(C[C@@H](O)CNC(=O)c1cc(NC3CCCC3)ncn1)C2 [Compound 339, N-[(2S)-3-[5-chloro-6-[(4-methyl-1,3-oxazol-5-yl)methoxy]-1,2,3,4-tetrahydroisoquinolin-2-yl)-2-hydroxypropyl]-6-(cxclopentylamino)pyrimidine-4-carboxamide]
PRMT5 [1]
  IC50: 0.5 to 5 µM
PRMT5 [2]
  IC50: ≥ 5 µM
PRMT5 [3]
  IC50: 0.05 to 0.5 µM
  SAM/MTA Ratio: A (a Ki ratio greater than or equal to 10 fold between the Ki in the presence of SAM and the Ki in the presence of MTA)
HAP1 MTAP-intact
  IC50: ≥ 10 µM
HAP1 MTAP-deleted
  IC50: ≥ 10 µM
  MTAP Intact/Deleted Ratio: C* (an IC50 ratio of less than 3 fold between the IC50 in the HAP1 MTAP-intact cell line and the HAP1 MTAP-deleted cell line)

## O=C(NC[C@H](O)CN1CCc2c(ccc(OCc3cnco3)c2Cl)C1)c1cc(NC2CCC2)ncc1F [Compound 340, (S)—N-(3-(5-chloro-6-(oxazol-5-ylmethoxy)-3N-dihydroisoquinolin-2(1H)-yl)-2-hydroxypropyl)-2-(cyclobutylamino)-5-fluoroisonicotinamide]
PRMT5 [1]
  IC50: 0.5 to 5 µM
PRMT5 [2]
  IC50: ≥ 5 µM
PRMT5 [3]
  IC50: 0.05 to 0.5 µM
  SAM/MTA Ratio: A (a Ki ratio greater than or equal to 10 fold between the Ki in the presence of SAM and the Ki in the presence of MTA)
HAP1 MTAP-intact
  IC50: ≥ 10 µM
HAP1 MTAP-deleted
  IC50: ≥ 10 µM
  MTAP Intact/Deleted Ratio: C* (an IC50 ratio of less than 3 fold between the IC50 in the HAP1 MTAP-intact cell line and the HAP1 MTAP-deleted cell line)

## Cc1c(OCc2cnco2)cc(F)c2c1CCN(C[C@@H](O)CNC(=O)c1ccnc(NC3CCC3)c1)C2 [Compound 341, 2-(cyclobutylamino)-N-[(2S)-3-[8-fluoro-5-methyl-6-(oxazol-5-ylmethoxy)-3,4-dihydro-1H-isoquinolin-2-yl]-2-hydroxy-propyl]pyridine-4-carboxamide]
PRMT5 [1]
  IC50: 0.05 to 0.5 µM
PRMT5 [2]
  IC50: 0.5 to 5 µM
PRMT5 [3]
  IC50: 0.05 to 0.5 µM
  SAM/MTA Ratio: A (a Ki ratio greater than or equal to 10 fold between the Ki in the presence of SAM and the Ki in the presence of MTA)
HAP1 MTAP-intact
  IC50: ≥ 10 µM
HAP1 MTAP-deleted
  IC50: 1 to 10 µM
  MTAP Intact/Deleted Ratio: B* (an IC50 ratio greater than or equal to 3 fold but lower than 10 fold between the IC50 in the HAP1 MTAP-intact cell line and the HAP1 MTAP-deleted cell line)

## CC(=O)N1CC(Nc2cc(C(=O)NC[C@H](O)CN3CCc4c(ccc(OCc5cnco5)c4Cl)C3)nc(C(C)C)n2)C1 [Compound 342, (S)-6-((1-acetylazetidin-3-yl)amino)-N-(3-(5-chloro-6-(oxazol-5-ylmethoxy)-3,4-dihydroisoquinolin-2(1H)-yl)-2-hydroxypropyl)-2-isopropylpyrimidine-4-carboxamide]
PRMT5 [1]
  IC50: 0.05 to 0.5 µM
PRMT5 [2]
  IC50: 0.5 to 5 µM
PRMT5 [3]
  IC50: 0.05 to 0.5 µM
  SAM/MTA Ratio: A (a Ki ratio greater than or equal to 10 fold between the Ki in the presence of SAM and the Ki in the presence of MTA)
HAP1 MTAP-intact
  IC50: ≥ 10 µM
HAP1 MTAP-deleted
  IC50: < 1 µM
  MTAP Intact/Deleted Ratio: A* (an IC50 ratio greater than or equal to 10 fold between the IC50 in the HAP1 MTAP-intact cell line and the HAP1 MTAP-deleted cell line)

## CC(=O)N1CCC(Nc2cc(C(=O)NC[C@H](O)CN3CCc4c(ccc(OCc5cnn[nH]5)c4Cl)C3)ncn2)CC1 [Compound 343, 6-[(1-acetyl-4-piperidyl)amino]-N-[(2S)-3-[5-chloro-6-(1H-triazol-5-ylmethoxy)-3,4-dihydro-1H-isoquinolin-2-yl]-2-hydroxy-propyl]pyrimidine-4-carboxamide]
PRMT5 [1]
  IC50: 0.5 to 5 µM
PRMT5 [2]
  IC50: ≥ 5 µM
PRMT5 [3]
  IC50: 0.5 to 5 µM
  SAM/MTA Ratio: A (a Ki ratio greater than or equal to 10 fold between the Ki in the presence of SAM and the Ki in the presence of MTA)
HAP1 MTAP-intact
  IC50: ≥ 10 µM
HAP1 MTAP-deleted
  IC50: 1 to 10 µM
  MTAP Intact/Deleted Ratio: C* (an IC50 ratio of less than 3 fold between the IC50 in the HAP1 MTAP-intact cell line and the HAP1 MTAP-deleted cell line)

## Cc1ncoc1COc1ccc2c(c1Cl)CCN(C[C@@H](O)CNC(=O)c1cccc(NC3CCC3)c1)C2 [Compound 344, N-[(2S)-3-{5-chloro-6-[(4-methyl-1,3-oxazol-5-yl)methoxy]-1,2,3,4-tetrahydroisoquinolin-2-yl}-2-hydroxypropyl]-3-(cyclobutylamino)benzamide]
PRMT5 [1]
  IC50: 0.05 to 0.5 µM
PRMT5 [2]
  IC50: ≥ 5 µM
PRMT5 [3]
  IC50: 0.05 to 0.5 µM
  SAM/MTA Ratio: A (a Ki ratio greater than or equal to 10 fold between the Ki in the presence of SAM and the Ki in the presence of MTA)
HAP1 MTAP-intact
  IC50: ≥ 10 µM
HAP1 MTAP-deleted
  IC50: ≥ 10 µM
  MTAP Intact/Deleted Ratio: C* (an IC50 ratio of less than 3 fold between the IC50 in the HAP1 MTAP-intact cell line and the HAP1 MTAP-deleted cell line)

## COCCN(C)c1cc(C(=O)NC[C@H](O)CN2CCc3c(ccc(OCc4cnco4)c3Cl)C2)cc(NC2CCC2)n1 [Compound 345]
PRMT5 [1]
  IC50: 0.05 to 0.5 µM
PRMT5 [2]
  IC50: ≥ 5 µM
PRMT5 [3]
  IC50: 0.05 to 0.5 µM
  SAM/MTA Ratio: A (a Ki ratio greater than or equal to 10 fold between the Ki in the presence of SAM and the Ki in the presence of MTA)
HAP1 MTAP-intact
  IC50: ≥ 10 µM
HAP1 MTAP-deleted
  IC50: 1 to 10 µM
  MTAP Intact/Deleted Ratio: B* (an IC50 ratio greater than or equal to 3 fold but lower than 10 fold between the IC50 in the HAP1 MTAP-intact cell line and the HAP1 MTAP-deleted cell line)

## Cc1ncoc1COc1ccc2c(c1Br)CCN(C[C@@H](O)CNC(=O)c1ccnc(NC3CCCCC3)c1)C2 [Compound 346, (S)—N-(3-(5-bromo-6-((4-methyloxazol-5-yl)methoxy)-3N-dihydroisoquinolin-2(1H)-yl)-2-hydroxypropyl)-2-(cyclohexylamino)isonicotinamide]
PRMT5 [1]
  IC50: 0.5 to 5 µM
PRMT5 [2]
  IC50: ≥ 5 µM
PRMT5 [3]
  IC50: 0.05 to 0.5 µM
  SAM/MTA Ratio: A (a Ki ratio greater than or equal to 10 fold between the Ki in the presence of SAM and the Ki in the presence of MTA)
HAP1 MTAP-intact
  IC50: ≥ 10 µM
HAP1 MTAP-deleted
  IC50: ≥ 10 µM
  MTAP Intact/Deleted Ratio: C* (an IC50 ratio of less than 3 fold between the IC50 in the HAP1 MTAP-intact cell line and the HAP1 MTAP-deleted cell line)

## O=C(NC[C@H](O)CN1CCc2c(ccc(OCc3cnco3)c2Cl)C1)c1ccnc(NC2CCCC(F)(F)C2)c1 (stereo partly shown) [Compound 347]
PRMT5 [1]
  IC50: 0.05 to 0.5 µM
PRMT5 [2]
  IC50: ≥ 5 µM
PRMT5 [3]
  IC50: 0.05 to 0.5 µM
  SAM/MTA Ratio: A (a Ki ratio greater than or equal to 10 fold between the Ki in the presence of SAM and the Ki in the presence of MTA)
HAP1 MTAP-intact
  IC50: ≥ 10 µM
HAP1 MTAP-deleted
  IC50: ≥ 10 µM
  MTAP Intact/Deleted Ratio: C* (an IC50 ratio of less than 3 fold between the IC50 in the HAP1 MTAP-intact cell line and the HAP1 MTAP-deleted cell line)

## O=C(NC[C@H](O)CN1CCc2c(ccc(OCc3cnco3)c2Br)C1)c1cccc(NC2CCC2)c1 [Compound 348, (S)—N-(3-(5-bromo-6-(oxazol-5-ylmethoxy)-3,4-dihydroisoquinolin-2(1H)-yl)-2-hydroxypropyl)-3-(cyclobutylamino)benzamide]
PRMT5 [1]
  IC50: 0.5 to 5 µM
PRMT5 [2]
  IC50: ≥ 5 µM
PRMT5 [3]
  IC50: 0.5 to 5 µM
  SAM/MTA Ratio: A (a Ki ratio greater than or equal to 10 fold between the Ki in the presence of SAM and the Ki in the presence of MTA)
HAP1 MTAP-intact
  IC50: ≥ 10 µM
HAP1 MTAP-deleted
  IC50: ≥ 10 µM
  MTAP Intact/Deleted Ratio: C* (an IC50 ratio of less than 3 fold between the IC50 in the HAP1 MTAP-intact cell line and the HAP1 MTAP-deleted cell line)
